# Measurements from patent publication US7196105B2, “Treatment of human multiple myeloma by curcumin” (Research Development Foundation, priority 2002, dated 2007).
# Key:
# IκB kinase [1] = biological target: T1, IκB kinase (Homo sapiens, UniProt O14920+O15111); assay: IκB kinase assay on IKK immunoprecipitated from curcumin-treated U266 cells; assay type: cell-based; settings: curcumin 50 μM, time course, GST-IκBα substrate
# T1 construct: 200 μg cytoplasmic extracts were immunoprecipitated with 1 μg of anti-IKKa and IKKb antibodies each; endogenous in cells; host or cells: U266 human multiple myeloma cells (cytoplasmic extract, immunoprecipitate on protein A/G-Sepharose)
# T1 sequence (O15111 whole entry): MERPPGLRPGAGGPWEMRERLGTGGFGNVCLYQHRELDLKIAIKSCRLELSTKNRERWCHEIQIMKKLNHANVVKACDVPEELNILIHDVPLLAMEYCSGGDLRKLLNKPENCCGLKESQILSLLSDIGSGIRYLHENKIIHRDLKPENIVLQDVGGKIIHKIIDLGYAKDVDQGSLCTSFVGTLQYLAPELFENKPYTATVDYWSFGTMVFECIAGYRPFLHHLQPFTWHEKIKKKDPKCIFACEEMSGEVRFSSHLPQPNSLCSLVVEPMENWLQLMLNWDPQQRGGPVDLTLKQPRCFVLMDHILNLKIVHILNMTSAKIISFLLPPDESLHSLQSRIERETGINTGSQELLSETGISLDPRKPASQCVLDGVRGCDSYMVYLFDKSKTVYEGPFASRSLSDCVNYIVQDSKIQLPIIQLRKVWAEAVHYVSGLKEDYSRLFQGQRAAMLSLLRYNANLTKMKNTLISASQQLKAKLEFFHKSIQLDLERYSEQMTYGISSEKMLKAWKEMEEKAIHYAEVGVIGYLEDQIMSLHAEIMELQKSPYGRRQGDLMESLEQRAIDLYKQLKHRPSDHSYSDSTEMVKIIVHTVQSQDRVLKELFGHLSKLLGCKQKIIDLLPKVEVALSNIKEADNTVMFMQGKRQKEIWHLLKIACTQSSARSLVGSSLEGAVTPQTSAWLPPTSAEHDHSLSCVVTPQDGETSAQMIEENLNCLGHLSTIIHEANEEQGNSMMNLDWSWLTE
# T1 sequence (O14920 whole entry): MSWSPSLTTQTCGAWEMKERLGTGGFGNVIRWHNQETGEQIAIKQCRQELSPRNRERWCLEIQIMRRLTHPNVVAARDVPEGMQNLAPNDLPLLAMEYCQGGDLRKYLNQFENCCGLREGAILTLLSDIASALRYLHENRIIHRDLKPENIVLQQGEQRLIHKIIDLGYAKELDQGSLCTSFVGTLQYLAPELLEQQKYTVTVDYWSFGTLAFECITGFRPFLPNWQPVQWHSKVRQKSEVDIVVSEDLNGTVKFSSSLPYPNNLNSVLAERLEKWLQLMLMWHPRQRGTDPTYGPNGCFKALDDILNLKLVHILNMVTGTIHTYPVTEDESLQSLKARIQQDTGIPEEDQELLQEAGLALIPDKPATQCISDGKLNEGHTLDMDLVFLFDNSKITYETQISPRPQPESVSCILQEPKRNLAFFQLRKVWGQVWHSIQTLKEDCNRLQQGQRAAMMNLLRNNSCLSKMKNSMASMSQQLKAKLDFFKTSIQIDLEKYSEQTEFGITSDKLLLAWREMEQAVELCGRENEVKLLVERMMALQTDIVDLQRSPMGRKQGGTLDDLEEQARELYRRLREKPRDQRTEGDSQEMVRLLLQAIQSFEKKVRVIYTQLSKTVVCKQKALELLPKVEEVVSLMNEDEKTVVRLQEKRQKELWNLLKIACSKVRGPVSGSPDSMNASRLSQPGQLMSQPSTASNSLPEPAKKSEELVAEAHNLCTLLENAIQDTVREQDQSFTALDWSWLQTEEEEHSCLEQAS
# T1 sequence (Q9Y6K9 whole entry partner): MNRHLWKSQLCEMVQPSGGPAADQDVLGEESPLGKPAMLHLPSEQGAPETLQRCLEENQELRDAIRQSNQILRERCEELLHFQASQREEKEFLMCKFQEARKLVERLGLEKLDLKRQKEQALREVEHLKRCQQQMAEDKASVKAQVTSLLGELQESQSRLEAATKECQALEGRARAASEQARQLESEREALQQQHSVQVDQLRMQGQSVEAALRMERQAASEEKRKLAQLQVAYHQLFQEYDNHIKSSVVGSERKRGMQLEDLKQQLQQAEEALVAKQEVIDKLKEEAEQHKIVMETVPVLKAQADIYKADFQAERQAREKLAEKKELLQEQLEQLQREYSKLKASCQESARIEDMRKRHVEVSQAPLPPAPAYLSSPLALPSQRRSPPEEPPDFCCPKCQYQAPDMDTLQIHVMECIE
# Description: (§1) Five million U266 cells/2.5 ml were treated with curcumin (50 μM) for the indicated times and cytoplasmic extracts were prepared. FIG. 3A: Level of phosphorylated IκBα determined by Western blotting. FIG. 3B: Immunoprecipitated IκB kinase and kinase assay of IκB kinase activity (upper panel) or Western blotting for the analysis of total IKKα and IKKβ proteins in cytoplasmic extracts (lower panel). FIG. 3C: IκB kinase was immunoprecipitated and kinase assay was performed in the absence or presence of the indicated concentrations of curcumin (upper panel). Lower panel indicates the amount of GST-IκBα protein stained with Coomassie Blue in each well in the same dried gel.
# (§2) The IkB kinase assay was performed with a modified method as described earlier (Manna et al., 2000). Briefly, 200 μg cytoplasmic extracts were immunoprecipitated with 1 μg of anti-IKKa and IKKb antibodies each, and the immune complexes so formed were precipitated with 0.01 ml of protein A/G-Sepharose beads for 2 hour. The beads were washed first with lysis buffer and then with kinase assay buffer (50 mM HEPES pH 7.4, 20 mM MgCl2, and 2 mM DTT). The immune complex was then assayed for kinase activity using kinase assay buffer containing […] [g-P^32]ATP, 10 μM unlabeled ATP, and 2 μg/sample glutathione S-transferase-IkBa (1–54). […] Radioactive bands of the dried gel were visualized and quantitated by PhosphorImager.
# Bcl-xL = assay: Western blot for NF-κB-regulated gene product Bcl-xL in U266 cells; assay type: cell-based, human; settings: curcumin 50 μM, time course
# Description: Sixty micrograms of cytoplasmic extracts were resolved on 10% SDS-PAGE gel, electrotransferred on a nitrocellulose membrane, and probed for the following: IκBα (FIG. 4A); Bcl-2 (FIG. 4B); Bcl-xL (FIG. 4C) and cyclin D1 (FIG. 4D). The same blots were stripped and reprobed with anti-β-actin antibody to show equal protein loading (lower panel in each figure). FIG. 4E: […] U266, MM.1 or RPMI 8226 cells (1×10^7) were treated with curcumin ([…]) in 5 ml of medium for the indicated times. Supernatants were harvested and concentrated approximately 20×, and IL-6 was quantitated by an IL-6 ELISA kit. Values shown were normalized to 1 ml of un-concentrated supernatants. Thirty to fifty micrograms of cytoplasmic protein extracts prepared as described (Chaturvedi et al., 2000) were resolved on 10% SDS-PAGE gel. After electrophoresis, the proteins were electrotransferred to a nitrocellulose membrane, blocked with 5% nonfat milk, and probed with antibodies against either IkBa, phospho-IkBa, Bcl-2, Bcl-xL, or cyclin D1 (1:3000) for 1 h. Thereafter, the blot was washed, exposed to HRP-conjugated secondary antibodies for 1 h, and finally detected by chemiluminescence (ECL, Amersham Pharmacia Biotech., Arlington Heights, Ill.).
# STAT3 = assay: Immunocytochemistry for STAT3 in bone marrow CD138+ cells from multiple myeloma patients; assay type: cell-based, human; settings: patients #5, #9 and #10, 50 μM curcumin, 2 h (legend b30: 1 h)
# Description: The cells were fixed on slides by cytospin centrifugation and immuno-stained for NF-κB or STAT3. Red stain indicates specific staining for NF-κB or STAT3, whereas blue stain indicates the relative position of the nuclei in the corresponding view.
# Red stain indicates the specific staining for NF-κB or STAT3 as indicated, whereas blue stain indicates the relative position of the nuclei in the corresponding view.
# Untreated or treated multiple myeloma cells were plated on a poly-L-lysine-coated glass slide by centrifugation using a Cytospin 4 (Thermoshendon, Pittsburg, Pa.), air-dried for 1 h at room temperature, and fixed with cold acetone. After a brief washing in PBS, slides were blocked with 5% normal goat serum for 1 h and then incubated either with rabbit polyclonal anti-human NF-κB p65 antibody (SC-109; dilution, 1:100) or with anti-human STAT3 antibody (SC-482; dilution, 1:100). After overnight incubation, the slides were washed and then incubated with goat anti-rabbit IgG-Alexa 594 (A-11037; dilution, 1:100) for 1 h and counter-stained for nuclei with Hoechst (50 ng/ml) for 5 min. Stained slides were mounted with mounting medium (Sigma Colo.) and analyzed under an epifluorescence microscope (Labophot-2, Nikon, Tokyo, Japan). […]
# IκB kinase [2] = biological target: T1, IκB kinase; assay: In vitro kinase assay: IKK immunoprecipitated from untreated U266 cells, then treated with curcumin; assay type: biochemical; settings: curcumin 30 min, GST-IκBα substrate
# Description: as §1
# as §2, with “PhosphorImager. […]” for “PhosphorImager.”
# IL-6 = IL-6 ELISA of culture supernatants; assay type: cell-based, human; settings: U266 cells, curcumin (legend b20: 10 mM)
# Description: Sixty micrograms of cytoplasmic extracts were resolved on 10% SDS-PAGE gel, electrotransferred on a nitrocellulose membrane, and probed for the following: IκBα (FIG. 4A); Bcl-2 (FIG. 4B); Bcl-xL (FIG. 4C) and cyclin D1 (FIG. 4D). The same blots were stripped and reprobed with anti-β-actin antibody to show equal protein loading (lower panel in each figure). FIG. 4E: […] U266, MM.1 or RPMI 8226 cells (1×10^7) were treated with curcumin ([…]) in 5 ml of medium for the indicated times. Supernatants were harvested and concentrated approximately 20×, and IL-6 was quantitated by an IL-6 ELISA kit. Values shown were normalized to 1 ml of un-concentrated supernatants. […] One hundred microliter aliquots were removed, and IL-6 contents were determined by an ELISA kit (Biosource International).
structure (smiles),measurement,setting,value
"COc1cc(/C=C/C(=O)CC(=O)/C=C/c2ccc(O)c(OC)c2)ccc1O [curcumin, diferuloylmethane]",IκB kinase activity of IKK immunoprecipitated from treated cells,IκB kinase [1],decreased in kinase activity
same,Bcl-xL protein level,Bcl-xL,only a partial decline
same,constitutive STAT3 activation (nuclear localization),STAT3,downregulated this transcripion factor
same,direct inhibition of IκB kinase activity,IκB kinase [2],inhibited IκB kinase activity directly in a dose-dependent manner
same,IL-6 production,IL-6,inhibited the production of IL-6
